Assay [1] relates to IFNγ-induced NO production in RAW 264.7 cells. Description: Nitric Oxide Suppression Assay (IFNγ-induced NO, Griess nitrite readout). The assay is classed as cell-based, mouse. The settings on record: for IC50: Mus musculus, read-out: Avg NO IC50 (nM) (Mean ± SD); for Avg NO IC50 Relative to RTA402 (fold): Table 2, ratio to RTA402. The gist of the method: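 Nitrite, a surrogate for NO, was measured by Griess reagent (525 nm) and quantified from standards by linear regression, expressed as percent of DMSO plus IFNγ control to give IC50. RAW 264.7 cells had 2 h compound pretreatment, then 24 h with 20 ng/mL IFNγ; WST-1 checked viability.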

Assay [2] has as its system Nrf2 / ARE-dependent luciferase in AREc32 reporter cell line. The assay can be described thus: AREc32 luciferase reporter activation (Nrf2 induction). The assay is classed as cell-based, human. The following applies: for EC (2-fold): Homo sapiens, Arec32; for Relative Avg AREc32 EC2X Relative to RTA402 (fold): ratio to RTA402. A digest of the protocol:
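EC2X is the concentration raising luminescence 2-fold above DMSO-treated cells, from a nonlinear-regression dose–response fit. Compounds (0.03–1000 nM) were applied for nineteen hours, starting one day after seeding 20,000 reporter cells per well. Luciferase was read with One-Glo reagent.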
In general terms: Reporter assays use an easily measured gene product as a stand-in for the process of interest.

[3] abbreviates: RAW264.7, Table 2, RAW 264.7 cells, 2 h pretreatment, 20 ng/mL interferon gamma 24 h.
The mark [4] stands for this setting: Table 2, concentration increasing luminescence 2-fold above vehicle, 19 h treatment, read-out: Avg AREc32 EC2X (nM) (Mean ± SD).

Like-named read-outs stand apart in the source and are kept apart here.

The term IC50 denotes the midpoint of a concentration-inhibition curve. Consider `C[C@@H]1[C@H]2[C@H]3C(=O)C=C4[C@@]5(C)C=C(C#N)C(=O)C(C)(C)[C@@H]5CC[C@@]4(C)[C@]3(C)CC[C@@]2(CCC(=O)N2CCC2)CC[C@H]1C` [Compound T80], for which the IC50 in assay [1] (setting [3]) stood at 2.76 ± 1.02 nM. Further, the “Avg NO IC50 Relative to RTA402 (fold)” value in assay [1] is given as 1.09 ± 0.03 fold. Also, the EC (2-fold) in assay [2] (setting [4]) is 3.72 ± 0.14 nM. Further, the “Relative Avg AREc32 EC2X Relative to RTA402 (fold)” value in assay [2] (Table 2) was 0.311 ± 0.023 fold.
The matching figures for `C[C@@H]1[C@H]2[C@H]3C(=O)C=C4[C@@]5(C)C=C(C#N)C(=O)C(C)(C)[C@@H]5CC[C@@]4(C)[C@]3(C)CC[C@@]2(CCC(=O)NC2CC2)CC[C@H]1C` [Compound T81]: 2.31 ± 0.55 nM, 0.92 ± 0.27 fold, 3.1 ± 1.5 nM and 0.238 ± 0.072 fold.
As for `Cc1nc([C@]23CC[C@@H](C)[C@H](C)[C@H]2[C@H]2C(=O)C=C4[C@@]5(C)C=C(C#N)C(=O)C(C)(C)[C@@H]5CC[C@@]4(C)[C@]2(C)CC3)no1` [Compound T82], the IC50 in assay [1] (setting [3]) was 5.58 ± 0.32 nM; in assay [1] (RAW264.7, Table 3, ursolic acid derivatives) it was 5.58 ± 0.32 nM. Moreover, the “Avg NO IC50 Relative to RTA402 (fold)” value in assay [1] is listed as 3.69 ± 0.82 fold. The EC (2-fold) came out at 10 ± 3 nM in assay [2] (setting [4]) and 10 ± 3 nM in assay [2] (Table 3, ursolic acid derivatives, read-out: Avg ARE EC-2X (nM) (Mean ± SD)). For the same compound, the “Relative Avg AREc32 EC2X Relative to RTA402 (fold)” value in assay [2] (Table 2) was found to be 1.01 ± 0.11 fold.
With `C[C@@H]1[C@H]2[C@H]3C(=O)C=C4[C@@]5(C)C=C(C#N)C(=O)C(C)(C)[C@@H]5CC[C@@]4(C)[C@]3(C)CC[C@@]2(C=O)CC[C@H]1C` [Compound T83], the IC50 in assay [1] (setting [3]) came to 4.43 ± 2.68 nM. The “Avg NO IC50 Relative to RTA402 (fold)” value in assay [1] worked out at 2.75 ± 1.67 fold. The EC (2-fold) in assay [2] (setting [4]) is 2.37 ± 0.33 nM. Moreover, the “Relative Avg AREc32 EC2X Relative to RTA402 (fold)” value in assay [2] (Table 2) is 0.294 ± 0.048 fold.
Turning to `C[C@@H]1[C@H]2[C@H]3C(=O)C=C4[C@@]5(C)C=C(C#N)C(=O)C(C)(C)[C@@H]5CC[C@@]4(C)[C@]3(C)CC[C@@]2(/C=N/O)CC[C@H]1C` [Compound T84], the IC50 in assay [1] (setting [3]) was 7.91 ± 2.32 nM. In addition, the “Avg NO IC50 Relative to RTA402 (fold)” value in assay [1] stood at 4.07 ± 1.76 fold. In assay [2] (setting [4]), the EC (2-fold) turned out to be 9.29 ± 1.52 nM. For the same compound, the “Relative Avg AREc32 EC2X Relative to RTA402 (fold)” value in assay [2] (Table 2) is on record as 1.14 ± 0.22 fold.
The matching figures for `CNC(=O)[C@]12CC[C@@H](C)[C@H](C)[C@H]1[C@H]1C(=O)C=C3[C@@]4(C)C=C(C#N)C(=O)C(C)(C)[C@@H]4CC[C@@]3(C)[C@]1(C)CC2` [Compound T85]: 26.8 ± 4.7 nM, 9.84 ± 1.92 fold, 19 ± 3.5 nM and 1.63 ± 0.17 fold.
On the same counts, the results for `C[C@@H]1[C@H]2[C@H]3C(=O)C=C4[C@@]5(C)C=C(C#N)C(=O)C(C)(C)[C@@H]5CC[C@@]4(C)[C@]3(C)CC[C@@]2(C(=O)NC2CC2)CC[C@H]1C` [Compound T86] are 28.5 ± 6.5 nM, 7.09 ± 1.54 fold, 24.8 ± 6.4 nM and 2.12 ± 0.16 fold.
On the same counts, the results for `C[C@@H]1[C@H]2[C@H]3C(=O)C=C4[C@@]5(C)C=C(C#N)C(=O)C(C)(C)[C@@H]5CC[C@@]4(C)[C@]3(C)CC[C@@]2(C(=O)NCC(F)F)CC[C@H]1C` [Compound T87] are 26.1 ± 7.6 nM, 6.55 ± 2.23 fold, 23.6 ± 0.9 nM and 2.0 ± 0.1 fold.
With `COC(=O)C[C@]12CC[C@@H](C)[C@H](C)[C@H]1[C@H]1C(=O)C=C3[C@@]4(C)C=C(C#N)C(=O)C(C)(C)[C@@H]4CC[C@@]3(C)[C@]1(C)CC2` [Compound T88], in assay [1] (setting [3]), the IC50 is 12.9 ± 5.1 nM. Moreover, the “Avg NO IC50 Relative to RTA402 (fold)” value in assay [1] stood at 6.48 ± 0.96 fold. In addition, in assay [2] (setting [4]), the EC (2-fold) was determined as 10.7 ± 3.2 nM. The “Relative Avg AREc32 EC2X Relative to RTA402 (fold)” value in assay [2] (Table 2) worked out at 1.03 ± 0.33 fold.
On the same counts, the results for `C[C@@H]1[C@H]2[C@H]3C(=O)C=C4[C@@]5(C)C=C(C#N)C(=O)C(C)(C)[C@@H]5CC[C@@]4(C)[C@]3(C)CC[C@@]2(CC(=O)O)CC[C@H]1C` [Compound T89] are 14.6 ± 2.2 nM, 8.03 ± 3.23 fold, 3.62 ± 1.73 nM and 0.345 ± 0.161 fold.
On the same counts, the results for `C[C@@H]1[C@H]2[C@H]3C(=O)C=C4[C@@]5(C)C=C(C#N)C(=O)C(C)(C)[C@@H]5CC[C@@]4(C)[C@]3(C)CC[C@@]2(CC(N)=O)CC[C@H]1C` [Compound T90] are 8.74 ± 2.77 nM, 4.60 ± 2.34 fold, 3.71 ± 0.99 nM and 0.455 ± 0.131 fold.
The matching figures for `CNC(=O)C[C@]12CC[C@@H](C)[C@H](C)[C@H]1[C@H]1C(=O)C=C3[C@@]4(C)C=C(C#N)C(=O)C(C)(C)[C@@H]4CC[C@@]3(C)[C@]1(C)CC2` [Compound T91]: 4.69 ± 1.87 nM, 2.44 ± 1.39 fold, 2.96 ± 0.77 nM and 0.359 ± 0.078 fold.
Turning to `C[C@@H]1[C@H]2[C@H]3C(=O)C=C4[C@@]5(C)C=C(C#N)C(=O)C(C)(C)[C@@H]5CC[C@@]4(C)[C@]3(C)CC[C@@]2(CC(=O)NC2CC2)CC[C@H]1C` [Compound T92], the IC50 in assay [1] (setting [3]) stood at 5.97 ± 2.71 nM. Besides, the “Avg NO IC50 Relative to RTA402 (fold)” value in assay [1] is on record as 3.68 ± 1.63 fold. For the same compound, the EC (2-fold) in assay [2] (setting [4]) was determined as 4.33 ± 0.75 nM. Also, in assay [2] (Table 2), the “Relative Avg AREc32 EC2X Relative to RTA402 (fold)” value is reported as 0.555 ± 0.181 fold.
The matching figures for `C[C@@H]1[C@H]2[C@H]3C(=O)C=C4[C@@]5(C)C=C(C#N)C(=O)C(C)(C)[C@@H]5CC[C@@]4(C)[C@]3(C)CC[C@@]2(CC(=O)N2CCC2)CC[C@H]1C` [Compound T93]: 5.69 ± 1.93 nM, 3.06 ± 1.70 fold, 4.24 ± 0.66 nM and 0.525 ± 0.129 fold.
Consider `Cc1noc(C[C@]23CC[C@@H](C)[C@H](C)[C@H]2[C@H]2C(=O)C=C4[C@@]5(C)C=C(C#N)C(=O)C(C)(C)[C@@H]5CC[C@@]4(C)[C@]2(C)CC3)n1` [Compound T96], for which the IC50 in assay [1] (setting [3]) came out at 13.3 ± 3.7 nM. The “Avg NO IC50 Relative to RTA402 (fold)” value in assay [1] was determined as 7.08 ± 3.49 fold. The EC (2-fold) in assay [2] (setting [4]) is 10.6 ± 0.7 nM. The “Relative Avg AREc32 EC2X Relative to RTA402 (fold)” value in assay [2] (Table 2) came out at 1.32 ± 0.21 fold.
The matching figures for `C[C@@H]1[C@H]2[C@H]3C(=O)C=C4[C@@]5(C)C6O[C@@]6(C#N)C(=O)C(C)(C)[C@@H]5CC[C@@]4(C)[C@]3(C)CC[C@@]2(CNC(=O)C2CC2)CC[C@H]1C` (some centres unmarked) [Compound T98]: 15.2 ± 4.3 nM, 4.45 ± 1.25 fold, 6.85 ± 0.51 nM and 0.574 ± 0.052 fold.
Turning to `Cc1noc([C@]23CC[C@@H](C)[C@H](C)[C@H]2[C@H]2C(=O)C=C4[C@@]5(C)C6O[C@@]6(C#N)C(=O)C(C)(C)[C@@H]5CC[C@@]4(C)[C@]2(C)CC3)n1` (some centres unmarked) [Compound T99], in assay [1] (setting [3]), the IC50 was 14.8 ± 4.7 nM. Further, the “Avg NO IC50 Relative to RTA402 (fold)” value in assay [1] was 5.92 ± 0.69 fold. Besides, in assay [2] (setting [4]), the EC (2-fold) was determined as 10.4 ± 0.8 nM. Besides, the “Relative Avg AREc32 EC2X Relative to RTA402 (fold)” value in assay [2] (Table 2) was 0.864 ± 0.046 fold.
With `C[C@@H]1[C@H]2[C@H]3C(=O)C=C4[C@@]5(C)C6O[C@@]6(C#N)C(=O)C(C)(C)[C@@H]5CC[C@@]4(C)[C@]3(C)CC[C@@]2(NC(=O)C(C)(F)F)CC[C@H]1C` (some centres unmarked) [Compound T100], the IC50 in assay [1] (setting [3]) is 60.6 ± 0.9 nM. Moreover, the “Avg NO IC50 Relative to RTA402 (fold)” value in assay [1] is listed as 28.1 ± 9.62 fold. For the same compound, the EC (2-fold) in assay [2] (setting [4]) stood at 29.4 ± 3.69 nM. For the same compound, the “Relative Avg AREc32 EC2X Relative to RTA402 (fold)” value in assay [2] (Table 2) is reported as 2.87 ± 0.59 fold.
The matching figures for `COC(=O)[C@]12CC[C@@H](C)[C@H](C)[C@H]1[C@H]1C(=O)C[C@@H]3[C@@]4(C)C=C(C#N)C(=O)C(C)(C)[C@@H]4CC[C@@]3(C)[C@]1(C)CC2` [Compound T101]: 102 ± 15 nM, 67.7 ± 3.62 fold, 142 ± 29 nM and 15.8 ± 2.1 fold.
The matching figures for `C[C@@H]1[C@H]2[C@H]3[C@H]4C[C@@H]5[C@@]6(C)C=C(C#N)C(=O)C(C)(C)[C@@H]6CC[C@@]5(C)[C@]3(C)CC[C@]2(CC[C@H]1C)C(=O)O4` [Compound T102]: 108 ± 19 nM, 36.5 ± 16.9 fold, 338 ± 11 nM and 31.2 ± 5.3 fold.
On the same counts, the results for `CCNC(=O)CC[C@]12CC[C@@H](C)[C@H](C)[C@H]1[C@H]1C(=O)C[C@@H]3[C@@]4(C)C=C(C#N)C(=O)C(C)(C)[C@@H]4CC[C@@]3(C)[C@]1(C)CC2` [Compound T103] are 22.1 ± 4.2 nM, 14.60 ± 0.59 fold, 43.1 ± 10.4 nM and 4.52 ± 0.90 fold.

For the origin of these results see US20240140986A1, “SYNTHETIC URSOLIC ACID DERIVATIVES AND METHODS OF USE THEREOF” (REATA PHARMACEUTICALS, INC., priority 2021, published 2024).
